Tested on: P. fluorescens strain that is susceptible to kanamycin
Test: Growth inhibition of P. fluorescens in 8% D2O, read from deuterated vs undeuterated membrane lipid ions by MALDI mass spectrometry
Format: cell-based, Pseudomonas fluorescens
Details: range of antibiotic concentrations, FIG. 2
Experimental: In FIG. 1 is shown eight MALDI mass spectra from about 680 to 730 m/z in negative ionization mode of membrane lipids extracted from a P. fluorescens strain that is susceptible to kanamycin. The aforementioned P. fluorescens strain was grown in seven environments containing Mueller-Hinton media and water containing 8% D2O, with each of the seven environments also having a concentration of kanamycin from 0 μg/mL to 200 μg/mL.
Extract samples using the method of embodiment 1b, as follows: skip optional step 2 of embodiment 1b; perform step 3 of embodiment 1b by drying the plate at 80° C. for about 5 min; perform step 4 of embodiment 1b by applying 1 μL of a solution of chloroform-methanol-water at a ratio by volume of 12:6:1, to which 10 mg/mL of beta-carboline has been added.
3. […]
In FIG. 1 can be seen multiple spectra for samples of a P. fluorescens strain that is susceptible to kanamycin, grown under different conditions, then extracted with a method of embodiment 1d and analyzed with a method of embodiment 2 using negative ionization mode. […]
In FIG. 2 can be seen a graph of the ratio of heavy/light LA ions from the spectra in FIG. 1, where light LA is measured as the intensity of the ion peak at 688.5 m/z and heavy LA is measured as the intensity of the ion peak at 692.5 m/z.

For CC1(C)S[C@@H]2[C@H](NC(=O)C(C(=O)O)c3ccccc3)C(=O)N2[C@H]1C(=O)O (stereo partly shown) [carbenicillin], the “relationship between heavy/light ratio and antibiotic concentration” value was “lowest at the highest antibiotic concentrations”.
